From patent US9085576B2 (AMGEN INC., priority 2013, dated 2015)

Target: Cathepsin D (Cat D) (Homo sapiens (Human), UniProt P07339)
Experiment: In vitro enzymatic Cathepsin D (Cat D) FRET assay
Assay type: biochemical
Details: read-out: CatD IC50

Chain of Cathepsin D (Cat D) (P07339 65-412, species assumed): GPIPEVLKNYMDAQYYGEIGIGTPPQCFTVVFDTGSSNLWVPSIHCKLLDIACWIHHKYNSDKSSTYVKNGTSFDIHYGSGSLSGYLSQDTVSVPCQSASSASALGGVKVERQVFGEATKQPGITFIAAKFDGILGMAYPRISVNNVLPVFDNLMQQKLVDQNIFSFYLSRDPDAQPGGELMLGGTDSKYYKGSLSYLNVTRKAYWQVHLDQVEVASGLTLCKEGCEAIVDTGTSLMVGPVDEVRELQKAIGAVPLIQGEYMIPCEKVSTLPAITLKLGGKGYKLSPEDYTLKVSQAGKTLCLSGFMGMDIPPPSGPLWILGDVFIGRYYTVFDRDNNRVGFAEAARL

SMILES | IC50
COc1c(F)cc(NC(=O)c2ccc(Cl)cn2)cc1[C@@]1(CF)N=C(N)O[C@@H]2C[C@@H]21 (racemic) [Example 31, N-(3-([(1R,S),(5S,R),(6R,S)]-3-amino-5-(fluoromethyl)-2-oxa-4-azabicyclo[4.1.0]hept-3-en-5-yl)-5-fluoro-4-methoxyphenyl)-5-chloropicolinamide] | 339 µM
N#Cc1cnc(C(=O)Nc2ccc(F)c([C@]3(C(F)F)N=C(N)O[C@H]4C[C@H]43)c2)c(Cl)c1 [Example 67, N-(3-((1S,5R,6S)-3-amino-5-(difluoromethyl)-2-oxa-4-azabicyclo[4.1.0]hept-3-en-5-yl)-4-fluorophenyl)-3-chloro-5-cyanopicolinamide] | 1290 µM
NC1=N[C@@](c2cc(Nc3ncc(F)c4cc(Cl)cnc34)ccc2F)(C(F)F)[C@H]2C[C@H]2O1 [Example 361, (1R,5S,6R)-5-(5-((3-chloro-5-fluoro-1,7-naphthyridin-8-yl)amino)-2-fluorophenyl)-5-(difluoromethyl)-2-oxa-4-azabicyclo[4.1.0]hept-3-en-3-amine] | > 400 µM
Cc1cc(NC(=O)c2ccc(Cl)cn2)cc([C@@]2(C(F)F)N=C(N)O[C@@H]3C[C@@H]32)c1F [Example 123, N-(3-((1R,5S,6R)-3-amino-5-(difluoromethyl)-2-oxa-4-azabicyclo[4.1.0]hept-3-en-5-yl)-4-fluoro-5-methylphenyl)-5-chloropicolinamide] | 257 µM
Cc1cc(NC(=O)c2ccc(Cl)cn2)cc([C@@]2(C(F)F)N=C(N)O[C@@H]3C[C@@H]32)c1F [Example 121, N-(3-((1R,5S,6R)-3-amino-5-(difluoromethyl)-2-oxa-4-azabicyclo[4.1.0]hept-3-en-5-yl)-4-fluoro-5-methylphenyl)-5-chloropicolinamide] | 206 µM
COC(=O)c1ccc(C(=O)Nc2cc(F)c(F)c([C@]3(C(F)F)N=C(N)O[C@H]4C[C@H]43)c2)nc1 [Example 436, methyl 6-((3-((1S,5R,6S)-3-amino-5-(difluoromethyl)-2-oxa-4-azabicyclo[4.1.0]hept-3-en-5-yl)-4,5-difluorophenyl)carbamoyl)nicotinate] | 343 µM
C#Cc1ccc(C(=O)Nc2ccc(F)c([C@@]3(C(F)F)N=C(N)O[C@@H]4C[C@@H]43)c2)nc1 [Example 313, N-(3-((1R,5S,6R)-3-amino-5-(difluoromethyl)-2-oxa-4-azabicyclo[4.1.0]hept-3-en-5-yl)-4-fluorophenyl)-5-ethynylpicolinamide] | 467 µM
N#Cc1ccc(C(=O)Nc2cnc(F)c([C@]3(C(F)F)N=C(N)O[C@H]4C[C@H]43)c2)nc1 (racemic) [Example 75, N-(5-([1(R,S),5(S,R),6(R,S)]-3-amino-5-(difluoromethyl)-2-oxa-4-azabicyclo[4.1.0]hept-3-en-5-yl)-6-fluoropyridin-3-yl)-5-cyanopicolinamide] | 348 µM
Cc1cc(NC(=O)c2ccc(Cl)cn2)cc([C@]2(C(F)F)N=C(N)O[C@H]3C[C@H]32)c1F [Example 124, N-(3-((1 S,5R,6S)-3-amino-5-(difluoromethyl)-2-oxa-4-azabicyclo[4.1.0]hept-3-en-5-yl)-4-fluoro-5-methylphenyl)-5-chloropicolinamide] | 1230 µM
Cc1cc(NC(=O)c2ccc(Cl)cn2)cc([C@@]2(C(F)F)N=C(N)O[C@@H]3C[C@@H]32)c1F (racemic) [Example 30, N-(3-([(1R,S),(5S,R),(6R,S)]-3-amino-5-(difluoromethyl)-2-oxa-4-azabicyclo[4.1.0]hept-3-en-5-yl)-4-fluoro-5-methylphenyl)-5-chloropicolinamide] | 469 µM
COc1c(F)cc(NC(=O)c2ccc(Cl)cn2)cc1[C@]1(CF)N=C(N)O[C@H]2C[C@H]21 [Example 146, N-(3-((1S,5R,6S)-3-amino-5-(fluoromethyl)-2-oxa-4-azabicyclo[4.1.0]hept-3-en-5-yl)-5-fluoro-4-methoxyphenyl)-5-chloropicolinamide] | 768 µM
COc1c(F)cc(NC(=O)c2ccc(Cl)cn2)cc1[C@@]1(CF)N=C(N)O[C@@H]2C[C@@H]21 [Example 145, N-(3-((1R,5S,6R)-3-amino-5-(fluoromethyl)-2-oxa-4-azabicyclo[4.1.0]hept-3-en-5-yl)-5-fluoro-4-methoxyphenyl)-5-chloropicolinamide] | 220 µM
NC1=N[C@@](c2cc(NC3(c4ccc(Cl)cn4)COC3)ccc2F)(C(F)F)[C@H]2C[C@H]2O1 [Example 332, (1R,5S,6R)-5-(5-((3-(5-chloropyridin-2-yl)oxetan-3-yl)amino)-2-fluorophenyl)-5-(difluoromethyl)-2-oxa-4-azabicyclo[4.1.0]hept-3-en-3-amine] | 163 µM
COc1cnc(C(=O)Nc2cc(F)c(F)c([C@@]3(C(F)F)N=C(N)O[C@@H]4C[C@@H]43)c2)cn1 [Example 112, N-(3-((1R,5S,6R)-3-amino-5-(difluoromethyl)-2-oxa-4-azabicyclo[4.1.0]hept-3-en-5-yl)-4,5-difluorophenyl)-5-methoxypyrazine-2-carboxamide] | 4180 µM
N#Cc1ccc(C(=O)Nc2cc(F)c(F)c([C@]3(CF)N=C(N)O[C@H]4C[C@H]43)c2)nc1 [Example 38, N-(3-((1S,55,6S) 3-amino-5-(fluoromethyl)-2-oxa-4-azabicyclo[4.1.0]hept-3-en-5-yl)-4,5-difluorophenyl)-5-cyanopicolinamide] | 2620 µM
Cc1cc(OCC#CC(C)(C)O)cnc1C(=O)Nc1ccc(F)c(C2(C)N=C(N)O[C@H]3C[C@H]32)c1 (mixture of isomers) [Example 29, N-(3-([1(R,S),5(S,R),6(R,S)]-3-amino-5-methyl-2-oxa-4-azabicyclo[4.1.0]hept-3-en-5-yl)-4-fluorophenyl)-5-((4-hydroxy-4-methylpent-2-yn-1-yl)oxy)-3-methylpicolinamide] | 462 µM
N#Cc1ccc(C(=O)Nc2cc(F)c(F)c([C@@]3(C(F)F)N=C(N)O[C@@H]4C[C@@H]43)c2)nc1 (stereo in doubt) [Example 109, N-(3-((1R,5S,6R)-3-amino-5-(difluoromethyl)-2-oxa-4-azabicyclo[4.1.0]hept-3-en-5-yl)-4,5-difluorophenyl)-5-cyanopicolinamide] | > 400 µM
C#CCOc1ccc(C(=O)Nc2ccc(F)c([C@@]3(CF)N=C(N)O[C@@H]4C[C@@H]43)c2)nc1 [Example 205, N-(3-((1R,5S,6R)-3-amino-5-(fluoromethyl)-2-oxa-4-azabicyclo[4.1.0]hept-3-en-5-yl)-4-fluorophenyl)-5-(prop-2-yn-1-yloxy)picolinamide] | 821 µM
N#Cc1ccc(C(=O)Nc2ccc(F)c([C@]3(C(F)F)N=C(N)O[C@H]4C[C@H]43)c2)nc1 (racemic) [Example 59, N-(3-([1(R,S),5(S,R),6(R,S)]-3-amino-5-(difluoromethyl)-2-oxa-4-azabicyclo[4.1.0]hept-3-en-5-yl)-4-fluorophenyl)-5-cyanopicolinamide compound] | 899 µM
NC1=N[C@@](c2cc(NC(=O)c3ccc(Br)cn3)cc(F)c2F)(C(F)F)[C@H]2C[C@H]2O1 [Example 116, N-(3-((1R,5S,6R)-3-amino-5-(difluoromethyl)-2-oxa-4-azabicyclo[4.1.0]hept-3-en-5-yl)-4,5-difluorophenyl)-5-bromopicolinamide] | 81.9 µM
N#Cc1ccc(C(=O)Nc2cc(F)c(F)c([C@@]3(C(F)F)N=C(N)O[C@@H]4C[C@@H]43)c2)nc1 [Example 113, N-(3-((1R,5S,6R)-3-amino-5-(difluoromethyl)-2-oxa-4-azabicyclo[4.1.0]hept-3-en-5-yl)-4,5-difluorophenyl)-5-cyanopicolinamide] | > 618 µM
N#Cc1ccc(C(=O)Nc2ccc(F)c([C@]3(C(F)F)N=C(N)O[C@H]4C[C@H]43)c2)nc1 [Example 65, N-(3-((1S,5R,6S)-3-amino-5-(difluoromethyl)-2-oxa-4-azabicyclo[4.1.0]hept-3-en-5-yl)-4-fluorophenyl)-5-cyanopicolinamide] | > 400 µM
Cc1cc(NC(=O)c2ncc(C#N)cn2)cc([C@@]2(C(F)F)N=C(N)O[C@@H]3C[C@@H]32)c1F [Example 298, N-(3-((1R,5S,6R)-3-amino-5-(difluoromethyl)-2-oxa-4-azabicyclo[4.1.0]hept-3-en-5-yl)-4-fluoro-5-methylphenyl)-5-cyanopyrimidine-2-carboxamide] | > 400 µM
NC1=N[C@@](c2cc(NC(=O)c3ccc(Cl)cn3)cc(F)c2F)(C(F)F)[C@H]2C[C@H]2O1 [Example 107, N-(3-((1R,5S,6R)-3-amino-5-(difluoromethyl)-2-oxa-4-azabicyclo[4.1.0]hept-3-en-5-yl)-4,5-difluorophenyl)-5-chloropicolinamide] | 213 µM
COc1ccc(C(=O)Nc2cc(F)c(F)c([C@@]3(CF)N=C(N)O[C@@H]4C[C@@H]43)c2)nc1 [Example 41, N-(3-((1R,5S,6R)-3-amino-5-(fluoromethyl)-2-oxa-4-azabicyclo[4.1.0]hept-3-en-5-yl)-4,5-difluorophenyl)-5-methoxypicolinamide] | 238 µM
NC1=N[C@](c2cc(NC(=O)c3ccc(Cl)cn3)cc(F)c2F)(C(F)F)[C@@H]2C[C@@H]2O1 [Example 108, N-(3-((1S,5R,6S)-3-amino-5-(difluoromethyl)-2-oxa-4-azabicyclo[4.1.0]hept-3-en-5-yl)-4,5-difluorophenyl)-5-chloropicolinamide] | 472 µM
Cc1ccc(NC(=O)c2ccc(C#N)cn2)cc1[C@@]1(C(F)F)N=C(N)O[C@@H]2C[C@@H]21 [Example 269, N-(3-((1R,5S,6R)-3-amino-5-(difluoromethyl)-2-oxa-4-azabicyclo[4.1.0]hept-3-en-5-yl)-4-methylphenyl)-5-cyanopicolinamide] | 716 µM
N#Cc1cnc(C(=O)Nc2ccc(F)c([C@]3(C(F)F)N=C(N)O[C@H]4C[C@H]43)c2)c(Cl)c1 (racemic) [Example 62, N-(3-([1(R,S),5(S,R),6(R,S)]-3-amino-5-(difluoromethyl)-2-oxa-4-azabicyclo[4.1.0]hept-3-en-5-yl)-4-fluorophenyl)-3-chloro-5-cyanopicolinamide] | 1100 µM
N#Cc1ccc(C(=O)Nc2cc(F)c(F)c([C@@]3(CF)N=C(N)O[C@@H]4C[C@@H]43)c2)nc1 [Example 37, N-(3-((1R,5S,6R)-3-amino-5-(fluoromethyl)-2-oxa-4-azabicyclo[4.1.0]hept-3-en-5-yl)-4,5-difluorophenyl)-5-cyanopicolinamide] | 364 µM
